Measured values from article PMC2694832, “Pharmacokinetics, tissue distribution and mass balance of radiolabeled dihydroartemisinin in male rats” (Malaria Journal, 2009).

Assay: Tissue distribution of [^14C] DHA
Format: in vivo, rats
Conditions: for Total Amounts of radioactivity in all measured tissues per gram / % of total AUC / Half-lives of radioactivity / Tissue AUC of radioactivity / Distribution of radioactivity: male rats i.v. 3 mg/20 μCi/kg
Protocol: Rats treated with a single [^14C] DHA dose of 3 mg/20 μCi/kg intravenously (5 rats per group) were anesthaetized by isofluorane and euthanized via cardiac puncture at 1, 6, 24, 48, 72, 96, and 192 hours, post-dosing. Blood, liver, brain, eyes, adrenals, muscle, lungs, heart, liver, kidneys, spleen, stomach, small intestine, large intestine, perirenal fat and bone marrow samples were removed from each animal by gross dissection. The gastrointestinal tract (GI) was separated into the stomach (oesophagus and stomach), small intestine, and large intestine. Contents were procured from each GI segment. After flushing with saline, these and other tissues were stored. Tissues were rinsed gently, but thoroughly with water to remove remaining traces of blood before storage. Dissecting instruments were also washed between tissue procurements to avoid cross-contamination.
For most of the tissues 20% (w/w) aqueous homogenates of the tissue were prepared. Aqueous homogenates of the faecal and GI content samples were also prepared. Metabolism cages were washed with a solution of 2% Count-off® and the volume was measured. Radioactivity in the plasma samples and in aliquots (approx. 0.02–1.0 ml) of urine and cage washings was determined. The blood cells (primarily erythrocytes), perirenal fat (approx. 0.2 g), bone marrow samples (approx. 0.1 ml), and approximately 300-μl aliquots of the homogenates of faeces, liver, kidneys, heart, brain, stomach and carcass were solubilized with SolvableTM tissue solubilizer (Perkin-Elmer Life and Analytical Sciences, Boston, MA). The homogenates of faeces, stomach content, and intestinal contents were extracted with 50% methanol for 24 hours. Aliquots of blood and pooled urine samples from selected intervals were also analysed for DHA content directly.
Total radioactivity in the collected tissue samples were quantified in duplicate. Weighed tissue aliquots (~0.2 g) were digested overnight in 2 ml of Solvable® tissue solubilizer (Perkin-Elmer Life and Analytical Sciences, Boston, MA) at 50°C. Coloured samples were decolourized by adding a maximum of 0.2 ml of 30% H2O2 for 30–60 minutes. Scintillation cocktail (Hyonic Fluor; Perkin-Elmer Boston. Massachusetts, USA) was then added and radioactivity determined in a Perkin-Elmer Tri-Carb 3100 TR scintillation spectrophotometer (Packard Instrument Co., Downers Grove, Illinois, USA). Faeces and intestinal contents were thoroughly homogenized before taking aliquots. Plasma was also analysed using the HPLC-ECD system to measure the concentration of unchanged DHA, as described by Li et al.

- Total Amounts of radioactivity in all measured tissues per gram (1 hr): 87,187 ng equivalents/tissue gram
- Total Amounts of radioactivity in all measured tissues per gram (1 hr, listed as [^14C]-dihydroartemisinin): 87186.55 ng equivalents/tissue gram
- radioactivity in the total measured tissues amassed in the small intestine and its content (1 hr, rats i.v. 3 mg/20 μCi/kg): approximately 62.6%
- Total Amounts of radioactivity in all measured tissues per gram (6 hr): 86023 ng equivalents/tissue gram
- Total Amounts of radioactivity in all measured tissues per gram (6 hr, listed as [^14C]-dihydroartemisinin): 86023.26 ng equivalents/tissue gram
- Total Amounts of radioactivity in all measured tissues per gram (24 hr): 21,457 ng equivalents/tissue gram
- Total Amounts of radioactivity in all measured tissues per gram (24 hr, listed as [^14C]-dihydroartemisinin): 21457.06 ng equivalents/tissue gram
- Total Amounts of radioactivity in all measured tissues per gram (48 hr): 16,390 ng equivalents/tissue gram
- Total Amounts of radioactivity in all measured tissues per gram (48 hr, listed as [^14C]-dihydroartemisinin): 16390.68 ng equivalents/tissue gram
- Total Amounts of radioactivity in all measured tissues per gram (72 hr): 15,831 ng equivalents/tissue gram
- Total Amounts of radioactivity in all measured tissues per gram (72 hr, listed as [^14C]-dihydroartemisinin): 15831.77 ng equivalents/tissue gram
- Total Amounts of radioactivity in all measured tissues per gram (96 hr): 11,385 ng equivalents/tissue gram
- Total Amounts of radioactivity in all measured tissues per gram (96 hr, listed as [^14C]-dihydroartemisinin): 11385.67 ng equivalents/tissue gram
- Total Amounts of radioactivity in all measured tissues per gram (192 hr): 13,961 ng equivalents/tissue gram
- Total Amounts of radioactivity in all measured tissues per gram (192 hr, listed as [^14C]-dihydroartemisinin): 13961.18 ng equivalents/tissue gram
- % of total AUC (Adrenals): 10.59%
- Half-lives of radioactivity (Adrenals): 92.48 ± 44.34 h
- Tissue AUC of radioactivity (Adrenals): 448,390 ng·hr/g
- Tissue AUC of radioactivity (Adrenals, listed as [^14C]-dihydroartemisinin): 448390 ± 273502 ng·h/g
- Distribution of radioactivity (Blood, 1 hr): 936.19 ng equivalents/tissue gram
- Distribution of radioactivity (Blood, 6 hr): 795.07 ng equivalents/tissue gram
- Distribution of radioactivity (Blood, 24 hr): 366.76 ng equivalents/tissue gram
- Distribution of radioactivity (Blood, 48 hr): 252.05 ng equivalents/tissue gram
- Distribution of radioactivity (Blood, 72 hr): 194.59 ng equivalents/tissue gram
- Distribution of radioactivity (Blood, 96 hr): 130.92 ng equivalents/tissue gram
- Distribution of radioactivity (Blood, 192 hr): 118.71 ng equivalents/tissue gram
- % of total AUC (Blood): 1.07%
- Half-lives of radioactivity (Blood): 122.13 ± 8.73 h
- Tissue AUC of radioactivity (Blood): 45463 ± 6810 ng·h/g
- % of total AUC (Brain): 0.81%
- Half-lives of radioactivity (Brain): 72.21 ± 6.33 h
- Tissue AUC of radioactivity (Brain): 34,189 ng·hr/g
- Tissue AUC of radioactivity (Brain, listed as [^14C]-dihydroartemisinin): 34189 ± 4885 ng·h/g
- % of total AUC (Eyes): 0.39%
- Half-lives of radioactivity (Eyes): 75.22 ± 9.40 h
- Tissue AUC of radioactivity (Eyes): 16519 ± 3048 ng·h/g
- % of total AUC (Fat): 0.60%
- Half-lives of radioactivity (Fat): 131.69 ± 21.94 h
- Tissue AUC of radioactivity (Fat): 25253 ± 1490 ng·h/g
- Distribution of radioactivity (Heart, 1 hr): 1512.27 ng equivalents/tissue gram
- Distribution of radioactivity (Heart, 6 hr): 1107.89 ng equivalents/tissue gram
- Distribution of radioactivity (Heart, 24 hr): 647.58 ng equivalents/tissue gram
- Distribution of radioactivity (Heart, 48 hr): 527.3 ng equivalents/tissue gram
- Distribution of radioactivity (Heart, 72 hr): 568.43 ng equivalents/tissue gram
- Distribution of radioactivity (Heart, 96 hr): 377.26 ng equivalents/tissue gram
- Distribution of radioactivity (Heart, 192 hr): 443.20 ng equivalents/tissue gram
- % of total AUC (Heart): 2.47%
- Half-lives of radioactivity (Heart): 74.35 ± 25.84 h
- Tissue AUC of radioactivity (Heart): 104,598 ng·hr/g
- Tissue AUC of radioactivity (Heart, listed as [^14C]-dihydroartemisinin): 104598 ± 24036 ng·h/g
- Distribution of radioactivity (Kidneys, 1 hr): 4097.87 ng equivalents/tissue gram
- Distribution of radioactivity (Kidneys, 6 hr): 4502.00 ng equivalents/tissue gram
- Distribution of radioactivity (Kidneys, 24 hr): 2535.56 ng equivalents/tissue gram
- Distribution of radioactivity (Kidneys, 48 hr): 2324.72 ng equivalents/tissue gram
- Distribution of radioactivity (Kidneys, 72 hr): 3286.27 ng equivalents/tissue gram
- Distribution of radioactivity (Kidneys, 96 hr): 1802.63 ng equivalents/tissue gram
- Distribution of radioactivity (Kidneys, 192 hr): 1819.89 ng equivalents/tissue gram
- % of total AUC (Kidneys): 4.53%
- Half-lives of radioactivity (Kidneys): 77.90 ± 8.41 h
- Tissue AUC of radioactivity (Kidneys): 191,781 ng·hr/g
- Tissue AUC of radioactivity (Kidneys, listed as [^14C]-dihydroartemisinin): 191781 ± 66422 ng·h/g
- Distribution of radioactivity (LI Content, 1 hr): 2914.59 ng equivalents/tissue gram
- Distribution of radioactivity (LI Content, 6 hr): 35567.01 ng equivalents/tissue gram
- Distribution of radioactivity (LI Content, 24 hr): 5127.28 ng equivalents/tissue gram
- Distribution of radioactivity (LI Content, 48 hr): 2037.53 ng equivalents/tissue gram
- Distribution of radioactivity (LI Content, 72 hr): 1426.62 ng equivalents/tissue gram
- Distribution of radioactivity (LI Content, 96 hr): 491.66 ng equivalents/tissue gram
- Distribution of radioactivity (LI Content, 192 hr): 1333.83 ng equivalents/tissue gram
- % of total AUC (LI Content): 13.90%
- Half-lives of radioactivity (LI Content): 37.20 ± 6.08 h
- Tissue AUC of radioactivity (LI Content): 588,542 ng·hr/g
- Tissue AUC of radioactivity (LI Content, listed as [^14C]-dihydroartemisinin): 588542 ± 104261 ng·h/g
- Distribution of radioactivity (Large intestine (LI), 1 hr): 1818.56 ng equivalents/tissue gram
- Distribution of radioactivity (Large intestine (LI), 6 hr): 8394.43 ng equivalents/tissue gram
- Distribution of radioactivity (Large intestine (LI), 24 hr): 1420.58 ng equivalents/tissue gram
- Distribution of radioactivity (Large intestine (LI), 48 hr): 562.96 ng equivalents/tissue gram
- Distribution of radioactivity (Large intestine (LI), 72 hr): 509.29 ng equivalents/tissue gram
- Distribution of radioactivity (Large intestine (LI), 96 hr): 220.41 ng equivalents/tissue gram
- Distribution of radioactivity (Large intestine (LI), 192 hr): 304.72 ng equivalents/tissue gram
- % of total AUC (Large intestine (LI)): 1.66%
- Half-lives of radioactivity (Large intestine (LI)): 62.53 ± 43.59 h
- Tissue AUC of radioactivity (Large intestine (LI)): 70,217 ng·hr/g
- Tissue AUC of radioactivity (Large intestine (LI), listed as [^14C]-dihydroartemisinin): 70217 ± 25001 ng·h/g
- Distribution of radioactivity (Liver, 1 hr): 4594.85 ng equivalents/tissue gram
- Distribution of radioactivity (Liver, 6 hr): 3516.69 ng equivalents/tissue gram
- Distribution of radioactivity (Liver, 24 hr): 1403.29 ng equivalents/tissue gram
- Distribution of radioactivity (Liver, 48 hr): 1104.94 ng equivalents/tissue gram
- Distribution of radioactivity (Liver, 72 hr): 1503.74 ng equivalents/tissue gram
- Distribution of radioactivity (Liver, 96 hr): 842.90 ng equivalents/tissue gram
- Distribution of radioactivity (Liver, 192 hr): 1270.24 ng equivalents/tissue gram
- % of total AUC (Liver): 4.07%
- Half-lives of radioactivity (Liver): 95.18 ± 37.90 h
- Tissue AUC of radioactivity (Liver): 172,474 ng·hr/g
- Tissue AUC of radioactivity (Liver, listed as [^14C]-dihydroartemisinin): 172474 ± 85780 ng·h/g
- Distribution of radioactivity (Lungs, 1 hr): 1161.72 ng equivalents/tissue gram
- Distribution of radioactivity (Lungs, 6 hr): 1040.99 ng equivalents/tissue gram
Structure (SMILES): C[C@@H]1CC[C@H]2[C@@H]([14CH3])C(O)O[C@@H]3O[C@@]4(C)CC[C@@H]1[C@]32OO4 (stereo partly drawn) [[^14C] DHA, [16-^14C] DHA]
